Data taken from PMC9927415, “Tyrosine Kinase Inhibitors Display Potent Activity against Cryptosporidium parvum” (Microbiology Spectrum, 2022).

How the values were obtained:
Experiment in all cases: KINOMEscan competitive binding
PAK2 = molecular target: T1, PAK2 (Homo sapiens, UniProt Q13177); conditions: n=1, read-out: Percent inhibition, PAK2
T1 construct: purchased DiscoverX (KINOMEscan)

PAK6 = molecular target: T2, PAK6 (Homo sapiens, UniProt Q9NQU5); conditions: n=1, read-out: Percent inhibition, PAK6
T2 construct: purchased DiscoverX (KINOMEscan)

PAK7/PAK5 = molecular target: T3, PAK7/PAK5 (Homo sapiens, UniProt Q9P286); conditions: n=1, read-out: Percent inhibition, PAK7/PAK5
T3 construct: purchased DiscoverX (KINOMEscan)

PRKX = molecular target: T4, PRKX (Homo sapiens, UniProt P51817); conditions: n=1, read-out: Percent inhibition, PRKX
T4 construct: purchased DiscoverX (KINOMEscan)
T4 sequence (P51817 1-358): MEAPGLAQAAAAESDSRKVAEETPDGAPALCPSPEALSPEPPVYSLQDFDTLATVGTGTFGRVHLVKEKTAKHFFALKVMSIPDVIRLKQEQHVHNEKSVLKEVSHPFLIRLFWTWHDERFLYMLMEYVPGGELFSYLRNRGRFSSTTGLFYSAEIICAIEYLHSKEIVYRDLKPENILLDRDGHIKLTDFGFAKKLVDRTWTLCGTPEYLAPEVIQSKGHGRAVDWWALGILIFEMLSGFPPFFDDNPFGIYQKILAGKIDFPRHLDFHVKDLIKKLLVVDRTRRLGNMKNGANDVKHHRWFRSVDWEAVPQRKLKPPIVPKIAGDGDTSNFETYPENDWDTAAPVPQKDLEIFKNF

ROS1 = molecular target: T5, ROS1 (Homo sapiens, UniProt P08922); conditions: n=1, read-out: Percent inhibition, ROS1
T5 construct: purchased DiscoverX (KINOMEscan)

RPS6KA2(Kin.Dom.1) = molecular target: T6, RPS6KA2(Kin.Dom.1) (Homo sapiens, UniProt Q15349); conditions: n=1, read-out: Percent inhibition, RPS6KA2(Kin.Dom.1)
T6 construct: RPS6KA2(Kin.Dom.1); purchased DiscoverX (KINOMEscan)

RPS6KA3(Kin.Dom.1) = molecular target: T7, RPS6KA3(Kin.Dom.1) (Homo sapiens, UniProt P51812); conditions: n=1, read-out: Percent inhibition, RPS6KA3(Kin.Dom.1)
T7 construct: RPS6KA3(Kin.Dom.1); purchased DiscoverX (KINOMEscan)

SLK = molecular target: T8, SLK (Homo sapiens, UniProt Q9H2G2); conditions: n=1, read-out: Percent inhibition, SLK
T8 construct: purchased DiscoverX (KINOMEscan)

SNF1LK2 = molecular target: T9, SNF1LK2 (Homo sapiens, UniProt Q9H0K1); conditions: n=1, read-out: Percent inhibition, SNF1LK2
T9 construct: purchased DiscoverX (KINOMEscan)

STK16 = molecular target: T10, STK16 (Homo sapiens, UniProt O75716); conditions: n=1, read-out: Percent inhibition, STK16
T10 construct: purchased DiscoverX (KINOMEscan)

TNIK = molecular target: T11, TNIK (Homo sapiens, UniProt Q9UKE5); conditions: n=1, read-out: Percent inhibition, TNIK
T11 construct: purchased DiscoverX (KINOMEscan)

TYK2(Kin.Dom.2) = molecular target: T12, TYK2(Kin.Dom.2) (Homo sapiens, UniProt P29597); conditions: n=1, read-out: Percent inhibition, TYK2(Kin.Dom.2)
T12 construct: TYK2(Kin.Dom.2); purchased DiscoverX (KINOMEscan)
T12 sequence (P29597 889-1187 limits assumed): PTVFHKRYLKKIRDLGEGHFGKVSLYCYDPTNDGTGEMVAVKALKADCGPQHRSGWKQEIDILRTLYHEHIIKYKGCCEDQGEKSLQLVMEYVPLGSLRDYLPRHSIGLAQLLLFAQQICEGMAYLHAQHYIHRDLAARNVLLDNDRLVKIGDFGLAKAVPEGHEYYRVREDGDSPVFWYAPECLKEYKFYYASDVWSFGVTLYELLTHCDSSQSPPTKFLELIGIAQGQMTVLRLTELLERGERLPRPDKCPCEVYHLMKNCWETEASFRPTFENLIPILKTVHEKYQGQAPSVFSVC

ULK3(mouse) = molecular target: T13, ULK3(mouse) (Mus musculus, UniProt Q3U3Q1); conditions: n=1, read-out: Percent inhibition, ULK3(mouse)
T13 construct: purchased DiscoverX (KINOMEscan)
T13 sequence (Q3U3Q1 1-472): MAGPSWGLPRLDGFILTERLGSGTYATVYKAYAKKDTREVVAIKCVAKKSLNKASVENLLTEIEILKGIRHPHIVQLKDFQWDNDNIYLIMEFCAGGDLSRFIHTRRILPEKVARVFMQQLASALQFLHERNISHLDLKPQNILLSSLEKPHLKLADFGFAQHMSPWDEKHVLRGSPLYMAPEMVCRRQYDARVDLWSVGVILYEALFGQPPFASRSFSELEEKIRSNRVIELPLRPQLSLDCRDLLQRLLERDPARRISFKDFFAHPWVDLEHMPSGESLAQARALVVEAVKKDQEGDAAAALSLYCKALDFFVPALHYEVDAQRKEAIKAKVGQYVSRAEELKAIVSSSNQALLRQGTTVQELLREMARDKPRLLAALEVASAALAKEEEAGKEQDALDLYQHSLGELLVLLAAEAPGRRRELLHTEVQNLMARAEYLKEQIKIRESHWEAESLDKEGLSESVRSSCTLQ

SYK = molecular target: T14, SYK (Homo sapiens, UniProt P43405); conditions: n=1, read-out: Percent inhibition, SYK
T14 construct: purchased DiscoverX (KINOMEscan)

T6 sequence (Q15349 1-388 limits assumed): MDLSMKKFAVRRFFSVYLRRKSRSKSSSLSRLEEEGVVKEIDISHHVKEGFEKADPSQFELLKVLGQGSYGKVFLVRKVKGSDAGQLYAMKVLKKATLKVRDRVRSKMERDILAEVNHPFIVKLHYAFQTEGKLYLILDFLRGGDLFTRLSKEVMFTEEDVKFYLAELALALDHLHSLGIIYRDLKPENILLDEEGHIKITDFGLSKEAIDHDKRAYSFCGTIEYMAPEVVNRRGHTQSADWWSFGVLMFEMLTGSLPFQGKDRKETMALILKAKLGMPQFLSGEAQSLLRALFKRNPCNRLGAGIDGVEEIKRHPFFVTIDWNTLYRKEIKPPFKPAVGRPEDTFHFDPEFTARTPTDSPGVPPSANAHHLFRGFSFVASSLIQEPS
T10 sequence (O75716 whole entry): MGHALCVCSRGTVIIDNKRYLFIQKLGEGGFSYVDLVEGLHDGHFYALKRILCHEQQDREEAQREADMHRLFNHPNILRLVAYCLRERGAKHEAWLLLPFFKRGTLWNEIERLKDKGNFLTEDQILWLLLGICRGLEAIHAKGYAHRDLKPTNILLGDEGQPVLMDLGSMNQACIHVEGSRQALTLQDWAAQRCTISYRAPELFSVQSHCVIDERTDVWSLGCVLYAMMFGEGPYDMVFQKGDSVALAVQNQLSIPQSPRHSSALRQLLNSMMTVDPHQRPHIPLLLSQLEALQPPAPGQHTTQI
T7 sequence (P51812 1-397 limits assumed): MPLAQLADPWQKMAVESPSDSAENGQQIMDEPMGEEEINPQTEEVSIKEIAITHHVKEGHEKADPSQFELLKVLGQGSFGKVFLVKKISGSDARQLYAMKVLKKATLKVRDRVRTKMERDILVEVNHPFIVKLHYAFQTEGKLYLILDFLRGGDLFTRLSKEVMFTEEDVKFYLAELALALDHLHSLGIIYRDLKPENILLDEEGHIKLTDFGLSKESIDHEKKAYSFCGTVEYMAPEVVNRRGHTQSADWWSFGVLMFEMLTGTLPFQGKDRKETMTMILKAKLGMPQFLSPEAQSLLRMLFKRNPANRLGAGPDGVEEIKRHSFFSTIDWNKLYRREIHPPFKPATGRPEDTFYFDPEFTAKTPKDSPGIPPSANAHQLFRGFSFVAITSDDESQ
T5 sequence (P08922 28-2347): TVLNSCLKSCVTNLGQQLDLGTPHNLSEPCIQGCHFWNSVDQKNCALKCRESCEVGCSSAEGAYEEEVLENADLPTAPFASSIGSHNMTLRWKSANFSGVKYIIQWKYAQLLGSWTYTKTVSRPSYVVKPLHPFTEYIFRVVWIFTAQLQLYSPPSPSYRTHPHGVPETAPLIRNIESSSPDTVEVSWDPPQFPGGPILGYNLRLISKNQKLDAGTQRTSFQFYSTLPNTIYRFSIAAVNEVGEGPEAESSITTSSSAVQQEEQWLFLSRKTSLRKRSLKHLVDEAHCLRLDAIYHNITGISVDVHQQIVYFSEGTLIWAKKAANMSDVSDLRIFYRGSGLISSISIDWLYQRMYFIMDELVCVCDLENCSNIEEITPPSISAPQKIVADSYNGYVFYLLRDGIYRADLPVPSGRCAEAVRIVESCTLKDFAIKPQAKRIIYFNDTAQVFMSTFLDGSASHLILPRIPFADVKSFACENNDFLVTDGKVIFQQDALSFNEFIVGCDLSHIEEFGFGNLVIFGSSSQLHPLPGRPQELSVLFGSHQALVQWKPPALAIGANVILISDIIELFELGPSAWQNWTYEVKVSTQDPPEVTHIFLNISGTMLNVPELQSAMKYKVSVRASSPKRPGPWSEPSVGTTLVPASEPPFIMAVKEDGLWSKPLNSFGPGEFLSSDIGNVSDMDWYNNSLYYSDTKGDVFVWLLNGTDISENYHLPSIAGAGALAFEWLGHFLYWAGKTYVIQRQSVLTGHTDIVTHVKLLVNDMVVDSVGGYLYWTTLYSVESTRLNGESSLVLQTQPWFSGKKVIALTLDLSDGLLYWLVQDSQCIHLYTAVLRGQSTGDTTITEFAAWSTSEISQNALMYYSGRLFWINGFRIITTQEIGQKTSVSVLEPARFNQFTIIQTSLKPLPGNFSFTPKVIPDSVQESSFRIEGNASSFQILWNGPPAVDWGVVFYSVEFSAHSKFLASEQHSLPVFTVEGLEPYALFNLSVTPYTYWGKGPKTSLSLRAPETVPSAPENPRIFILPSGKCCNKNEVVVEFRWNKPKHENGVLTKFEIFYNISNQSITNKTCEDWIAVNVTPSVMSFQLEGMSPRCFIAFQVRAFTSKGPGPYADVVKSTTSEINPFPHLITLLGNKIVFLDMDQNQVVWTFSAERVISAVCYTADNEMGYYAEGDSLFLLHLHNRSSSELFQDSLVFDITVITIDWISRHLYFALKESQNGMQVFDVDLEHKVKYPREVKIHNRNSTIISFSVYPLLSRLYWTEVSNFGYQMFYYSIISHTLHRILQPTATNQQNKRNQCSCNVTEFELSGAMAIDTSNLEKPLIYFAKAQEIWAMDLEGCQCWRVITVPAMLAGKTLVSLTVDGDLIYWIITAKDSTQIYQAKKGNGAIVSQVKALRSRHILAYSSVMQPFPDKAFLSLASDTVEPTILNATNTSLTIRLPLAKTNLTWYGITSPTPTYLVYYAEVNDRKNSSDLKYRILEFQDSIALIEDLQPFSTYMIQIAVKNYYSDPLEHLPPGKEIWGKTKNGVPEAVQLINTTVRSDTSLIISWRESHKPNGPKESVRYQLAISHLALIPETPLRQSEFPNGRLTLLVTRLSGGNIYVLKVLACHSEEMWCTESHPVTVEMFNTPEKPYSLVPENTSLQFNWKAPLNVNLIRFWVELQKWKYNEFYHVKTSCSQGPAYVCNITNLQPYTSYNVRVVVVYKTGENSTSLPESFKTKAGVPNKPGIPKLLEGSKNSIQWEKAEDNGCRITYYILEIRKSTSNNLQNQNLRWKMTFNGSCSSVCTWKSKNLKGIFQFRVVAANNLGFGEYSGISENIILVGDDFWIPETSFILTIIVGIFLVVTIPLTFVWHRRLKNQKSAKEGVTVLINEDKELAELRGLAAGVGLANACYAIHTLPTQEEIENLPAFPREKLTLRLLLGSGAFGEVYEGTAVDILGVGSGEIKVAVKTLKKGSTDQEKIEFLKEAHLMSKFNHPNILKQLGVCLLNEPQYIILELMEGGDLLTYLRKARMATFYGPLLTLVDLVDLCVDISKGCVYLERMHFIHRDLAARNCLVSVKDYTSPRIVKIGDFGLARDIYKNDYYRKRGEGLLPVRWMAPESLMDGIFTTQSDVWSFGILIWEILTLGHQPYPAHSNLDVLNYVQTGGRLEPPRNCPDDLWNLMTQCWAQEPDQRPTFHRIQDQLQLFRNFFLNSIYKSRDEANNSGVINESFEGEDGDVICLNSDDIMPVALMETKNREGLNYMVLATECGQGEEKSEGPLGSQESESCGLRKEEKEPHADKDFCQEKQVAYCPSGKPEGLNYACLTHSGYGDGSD
T2 sequence (Q9NQU5 whole entry): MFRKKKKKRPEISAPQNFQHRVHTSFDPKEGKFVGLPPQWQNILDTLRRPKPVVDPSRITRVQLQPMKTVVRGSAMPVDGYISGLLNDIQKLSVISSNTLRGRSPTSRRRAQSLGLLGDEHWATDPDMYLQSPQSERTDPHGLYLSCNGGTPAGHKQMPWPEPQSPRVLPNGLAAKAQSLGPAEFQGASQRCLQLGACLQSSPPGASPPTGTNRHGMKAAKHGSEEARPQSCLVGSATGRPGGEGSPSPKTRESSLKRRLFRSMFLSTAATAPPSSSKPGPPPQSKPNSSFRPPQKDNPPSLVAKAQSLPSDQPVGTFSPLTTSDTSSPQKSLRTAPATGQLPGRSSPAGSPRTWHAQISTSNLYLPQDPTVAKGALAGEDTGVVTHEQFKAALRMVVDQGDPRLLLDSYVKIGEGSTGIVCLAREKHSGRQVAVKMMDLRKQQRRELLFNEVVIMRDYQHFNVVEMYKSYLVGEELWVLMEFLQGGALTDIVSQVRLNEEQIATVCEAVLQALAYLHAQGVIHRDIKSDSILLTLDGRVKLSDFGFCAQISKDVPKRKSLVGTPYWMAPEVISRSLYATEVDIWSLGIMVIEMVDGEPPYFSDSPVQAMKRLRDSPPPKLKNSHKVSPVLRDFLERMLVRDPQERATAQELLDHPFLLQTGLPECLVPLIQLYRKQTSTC
T1 sequence (Q13177 whole entry): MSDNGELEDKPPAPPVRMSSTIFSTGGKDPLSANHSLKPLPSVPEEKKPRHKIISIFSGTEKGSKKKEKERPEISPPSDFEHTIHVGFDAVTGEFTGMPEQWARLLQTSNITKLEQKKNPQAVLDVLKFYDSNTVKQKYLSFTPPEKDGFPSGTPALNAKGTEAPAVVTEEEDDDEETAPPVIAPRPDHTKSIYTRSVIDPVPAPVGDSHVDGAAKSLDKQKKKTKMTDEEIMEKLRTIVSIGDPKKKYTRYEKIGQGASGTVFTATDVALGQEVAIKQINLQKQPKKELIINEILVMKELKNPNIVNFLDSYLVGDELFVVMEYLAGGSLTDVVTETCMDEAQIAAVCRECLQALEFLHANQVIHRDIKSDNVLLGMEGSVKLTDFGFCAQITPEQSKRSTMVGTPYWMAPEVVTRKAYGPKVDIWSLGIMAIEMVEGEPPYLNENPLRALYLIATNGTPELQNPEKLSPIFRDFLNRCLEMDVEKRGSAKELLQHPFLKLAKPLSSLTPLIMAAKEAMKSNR

Compound: Cc1ccc(O)cc1Nc1ccnc(Nc2cccc(C(N)=O)c2)n1 [Compound 3]
- inhibition at 10 µM (PAK2): 93.4%
- inhibition at 10 µM (PAK6): 0%
- inhibition at 10 µM (PAK7/PAK5): 67.6%
- inhibition at 10 µM (PRKX): 0%
- inhibition at 10 µM (ROS1): 0%
- inhibition at 10 µM (RPS6KA2(Kin.Dom.1)): 0%
- inhibition at 10 µM (RPS6KA3(Kin.Dom.1)): 0%
- inhibition at 10 µM (SLK): 83.5%
- inhibition at 10 µM (SNF1LK2): 96.7%
- inhibition at 10 µM (STK16): 99.9%
- inhibition at 10 µM (TNIK): 99.3%
- inhibition at 10 µM (TYK2(Kin.Dom.2)): 94%
- inhibition at 10 µM (ULK3(mouse)): 91.5%

Compound: Cc1ccc(O)cc1N(C)c1ccnc(Nc2cccc(S(N)(=O)=O)c2)n1 [Compound 4]
- inhibition at 10 µM (PAK2): 100%
- inhibition at 10 µM (PAK6): 94.3%
- inhibition at 10 µM (PAK7/PAK5): 98.5%
- inhibition at 10 µM (PRKX): 0%
- inhibition at 10 µM (ROS1): 90%
- inhibition at 10 µM (RPS6KA2(Kin.Dom.1)): 0%
- inhibition at 10 µM (RPS6KA3(Kin.Dom.1)): 0%
- inhibition at 10 µM (SLK): 99.5%
- inhibition at 10 µM (SNF1LK2): 95.1%
- inhibition at 10 µM (STK16): 99.8%
- inhibition at 10 µM (SYK): 98.7%
- inhibition at 10 µM (TNIK): 99.6%
- inhibition at 10 µM (TYK2(Kin.Dom.2)): 95.6%
- inhibition at 10 µM (ULK3(mouse)): 98.8%

Compound: CN1CCN(c2ccc(Nc3nccc(-c4cnn5ncccc45)n3)cc2C#N)CC1 [Compound 1]
- inhibition at 10 µM (PAK2): 95.4%
- inhibition at 10 µM (PAK6): 92.5%
- inhibition at 10 µM (PAK7/PAK5): 99.2%
- inhibition at 10 µM (PRKX): 0%
- inhibition at 10 µM (ROS1): 91.9%
- inhibition at 10 µM (RPS6KA2(Kin.Dom.1)): 77.6%
- inhibition at 10 µM (RPS6KA3(Kin.Dom.1)): 86%
- inhibition at 10 µM (SLK): 98.1%
- inhibition at 10 µM (SNF1LK2): 69.9%
- inhibition at 10 µM (STK16): 100%
- inhibition at 10 µM (SYK): 78.3%
- inhibition at 10 µM (TNIK): 98.9%
- inhibition at 10 µM (TYK2(Kin.Dom.2)): 88.2%
- inhibition at 10 µM (ULK3(mouse)): 97.1%

Compound: Clc1ccc(Nc2ncc(-c3ccccc3)s2)cc1 [Compound 10]
- inhibition at 10 µM (PAK2): 0%
- inhibition at 10 µM (PAK6): 0%
- inhibition at 10 µM (PAK7/PAK5): 0%
- inhibition at 10 µM (PRKX): 0%
- inhibition at 10 µM (ROS1): 0%
- inhibition at 10 µM (RPS6KA2(Kin.Dom.1)): 0%
- inhibition at 10 µM (RPS6KA3(Kin.Dom.1)): 0%
- inhibition at 10 µM (SLK): 0%
- inhibition at 10 µM (SNF1LK2): 0%
- inhibition at 10 µM (STK16): 0%
- inhibition at 10 µM (SYK): 0%
- inhibition at 10 µM (TNIK): 0%
- inhibition at 10 µM (TYK2(Kin.Dom.2)): 0%
- inhibition at 10 µM (ULK3(mouse)): 0%

Compound: Nc1ncc2c(-c3ccncc3)c[nH]c2n1 [Compound 11]
- inhibition at 10 µM (PAK2): 0%
- inhibition at 10 µM (PAK6): 0%
- inhibition at 10 µM (PAK7/PAK5): 77.1%
- inhibition at 10 µM (PRKX): 0%
- inhibition at 10 µM (ROS1): 0%
- inhibition at 10 µM (RPS6KA2(Kin.Dom.1)): 0%
- inhibition at 10 µM (RPS6KA3(Kin.Dom.1)): 0%
- inhibition at 10 µM (SLK): 75.5%
- inhibition at 10 µM (SNF1LK2): 0%
- inhibition at 10 µM (STK16): 0%
- inhibition at 10 µM (SYK): 75.9%
- inhibition at 10 µM (TNIK): 93.7%
- inhibition at 10 µM (TYK2(Kin.Dom.2)): 0%
- inhibition at 10 µM (ULK3(mouse)): 91.7%

Compound: Fc1cccc(COc2ccc(Nc3ncnc4c3CN(CCN3CCOCC3)CC4)cc2Cl)c1 [Compound 6]
- inhibition at 10 µM (PAK2): 97.6%
- inhibition at 10 µM (PAK6): 0%
- inhibition at 10 µM (PAK7/PAK5): 0%
- inhibition at 10 µM (PRKX): 0%
- inhibition at 10 µM (ROS1): 0%
- inhibition at 10 µM (RPS6KA2(Kin.Dom.1)): 0%
- inhibition at 10 µM (RPS6KA3(Kin.Dom.1)): 0%
- inhibition at 10 µM (SLK): 0%
- inhibition at 10 µM (SNF1LK2): 0%
- inhibition at 10 µM (STK16): 0%
- inhibition at 10 µM (SYK): 0%
- inhibition at 10 µM (TNIK): 0%
- inhibition at 10 µM (TYK2(Kin.Dom.2)): 0%
- inhibition at 10 µM (ULK3(mouse)): 0%

Compound: COc1ccc(Nc2nccc(-c3cnn4ncccc34)n2)cc1 [Compound 2]
- inhibition at 10 µM (PAK2): 0%
- inhibition at 10 µM (PAK6): 82%
- inhibition at 10 µM (PAK7/PAK5): 72.8%
- inhibition at 10 µM (PRKX): 0%
- inhibition at 10 µM (ROS1): 90.3%
- inhibition at 10 µM (RPS6KA2(Kin.Dom.1)): 0%
- inhibition at 10 µM (RPS6KA3(Kin.Dom.1)): 0%
- inhibition at 10 µM (SLK): 77.9%
- inhibition at 10 µM (SNF1LK2): 0%
- inhibition at 10 µM (STK16): 99.7%
- inhibition at 10 µM (SYK): 80.9%
- inhibition at 10 µM (TNIK): 93.4%
- inhibition at 10 µM (TYK2(Kin.Dom.2)): 0%
- inhibition at 10 µM (ULK3(mouse)): 92.5%

Compound: C[C@@H](Oc1cc(-c2cnc3ccccn23)sc1C(N)=O)c1ccccc1Cl [Compound 8]
- inhibition at 10 µM (PAK2): 0%
- inhibition at 10 µM (PAK6): 0%
- inhibition at 10 µM (PAK7/PAK5): 0%
- inhibition at 10 µM (PRKX): 0%
- inhibition at 10 µM (ROS1): 0%
- inhibition at 10 µM (RPS6KA2(Kin.Dom.1)): 70%
- inhibition at 10 µM (RPS6KA3(Kin.Dom.1)): 0%
- inhibition at 10 µM (SLK): 100%
- inhibition at 10 µM (SNF1LK2): 0%
- inhibition at 10 µM (STK16): 0%
- inhibition at 10 µM (SYK): 0%
- inhibition at 10 µM (TNIK): 0%
- inhibition at 10 µM (TYK2(Kin.Dom.2)): 0%
- inhibition at 10 µM (ULK3(mouse)): 0%

Compound: COc1cc(Nc2nccc(-c3sc(N)nc3-c3cccc(NC(=O)c4c(F)cccc4F)c3)n2)cc(OC)c1OC [Compound 7]
- inhibition at 10 µM (PAK2): 90%
- inhibition at 10 µM (PAK6): 65%
- inhibition at 10 µM (PAK7/PAK5): 89.4%
- inhibition at 10 µM (PRKX): 0%
- inhibition at 10 µM (ROS1): 80.6%
- inhibition at 10 µM (RPS6KA2(Kin.Dom.1)): 97.2%
- inhibition at 10 µM (RPS6KA3(Kin.Dom.1)): 99.8%
- inhibition at 10 µM (SLK): 99.8%
- inhibition at 10 µM (SNF1LK2): 99.4%
- inhibition at 10 µM (STK16): 98.7%
- inhibition at 10 µM (SYK): 98.9%
- inhibition at 10 µM (TNIK): 99.9%
- inhibition at 10 µM (TYK2(Kin.Dom.2)): 97.2%
- inhibition at 10 µM (ULK3(mouse)): 100%

Compound: c1ccc(COc2cccc(-c3ccnc4[nH]ccc34)c2)cc1 [Compound 9]
- inhibition at 10 µM (PAK2): 0%
- inhibition at 10 µM (PAK6): 0%
- inhibition at 10 µM (PAK7/PAK5): 0%
- inhibition at 10 µM (PRKX): 0%
- inhibition at 10 µM (ROS1): 0%
- inhibition at 10 µM (RPS6KA2(Kin.Dom.1)): 0%
- inhibition at 10 µM (RPS6KA3(Kin.Dom.1)): 0%
- inhibition at 10 µM (SLK): 0%
- inhibition at 10 µM (SNF1LK2): 0%
- inhibition at 10 µM (STK16): 0%
- inhibition at 10 µM (SYK): 0%
- inhibition at 10 µM (TNIK): 0%
- inhibition at 10 µM (TYK2(Kin.Dom.2)): 0%
- inhibition at 10 µM (ULK3(mouse)): 0%
